According to patent publication US20240016788A1, “PHARMACEUTICAL COMPOSITION FOR PREVENTING OR TREATING DIABETIC AND POSTMENOPAUSAL OSTEOPOROSIS, CONTAINING ADIPORON” (PnP Biopharm Co., Ltd., priority 2020, published 2024):

Assays:
Assay type in all cases: in vivo
[1] = system: type 2 diabetic db/db mice; test: Body weight, blood biochemistry and 24-hour urine oxidative stress in diabetic osteoporosis model db/db mice
Protocol: A leptin receptor-defective type 2 diabetic animal model (db/db mice) and a normal control group (db/m mice) were used, and the experiment was performed by dividing into 4 groups as follows: non-diabetic control group (dm cont, n=8), non-diabetic adiporon treatment group (dm+AdipoR, n=8), diabetic control group (db cont, n=8) and diabetic adiporon treatment group (db+AdipoR, n=8). The control group was fed a normal diet, and the adiporon treatment group was fed a diet comprising adiporon (30 mg/kg/day) for 4 weeks from 16 weeks of age. During the experiment, body weight was measured every week, fasting blood glucose was measured using an Accu-Chek meter (Roche Diagnostics, St. Louis, MO) every 2 weeks after blood was collected from the tail vein, and glycated hemoglobin (HbA1c) was measured every 4 weeks using a […] automatic analyzer (Bayer healthcare LLC, IN) after blood was collected from the tail vein. The temperature and humidity of the breeding room were maintained at 20˜25° C. and 50˜60%, respectively, and the lights were turned on and off at 12-hour intervals. In both experiments, blood collected from each mouse was allowed to stand at room temperature for 30 minutes, and then centrifuged at 3000 rpm for 15 minutes to obtain serum. Blood levels of tartrate-resistant acid phosphatase (TRAP/ACP5) and osterocalcin concentration were measured by ELISA. In addition, 8-hydroxy-deoxyguanosine, a DNA damage marker caused by oxidative stress, and isoprostane, a marker of oxidative stress caused by lipid peroxidation caused by free fatty acids, and deoxypyridinoline (DPP), which indicates the function of osteoclasts, were measured in 24-hour urine concentrations by ELISA method.

[2] = system: ovariectomized C57BL/6 mice; test: Western blot of bone tissue, ovariectomized mice; conditions: for Decreased expression of adiponectin-receptor 1/2 (western blot): 6 weeks
Protocol: 7 weeks after ovariectomization or sham surgery of 7-week-old C57BL/6 mice, normal feed group (adiporon non-administered group; control group) administration group, 2.5 mg/kg day or 25 mg/kg day, respectively Feed comprising adiporon was consumed for 6 weeks from 14 weeks of age. Body weight was measured every week during the experiment period, and the experiment was conducted after 6 weeks of administration.
Protein was extracted using Pro-Prep Protein Extraction Solution (Intron Biotechnology, Gyeonggi-Do, Korea), and SDS-PAGE (sodium dodecyl sulfate-polyacrylamide gel electrophoresis) was performed. The separated protein was transferred to a nitrocellulose membrane (Amersham Co., Buckinghamshire, England) and treated with Tris buffered saline (in TBS-T: 0.1% Tween-20 in Tris buffer saline, pH 7.5) containing 3% skim milk. After blocking for an hour, the blots were reacted in adiponectin receptor 1/2, total AMPK, phospho-Thr172AMPK, PGC-1α, Nrf-2, SOD1/2, NQO1, HO-1, NOX4, NF-κB and β-actin primary antibody solution, washing, reacting with a secondary antibody against each primary antibody, and then photosensitizing through ECL (Pierce, Rockford IL) to confirm the band. The expression level of each protein was normalized according to β-actin.

[3] = system: type 2 diabetic db/db mice; test: Histological examination (H&E, trichrome, Safranin O) of ilium (femur) and lumbar vertebra 5, db/db mice; conditions: adiporon 30 mg/kg/day, 4 weeks
Protocol: A leptin receptor-defective type 2 diabetic animal model (db/db mice) and a normal control group (db/m mice) were used, and the experiment was performed by dividing into 4 groups as follows: non-diabetic control group (dm cont, n=8), non-diabetic adiporon treatment group (dm+AdipoR, n=8), diabetic control group (db cont, n=8) and diabetic adiporon treatment group (db+AdipoR, n=8). The control group was fed a normal diet, and the adiporon treatment group was fed a diet comprising adiporon (30 mg/kg/day) for 4 weeks from 16 weeks of age. During the experiment, body weight was measured every week, fasting blood glucose was measured using an Accu-Chek meter (Roche Diagnostics, St. Louis, MO) every 2 weeks after blood was collected from the tail vein, and glycated hemoglobin (HbA1c) was measured every 4 weeks using a […] automatic analyzer (Bayer healthcare LLC, IN) after blood was collected from the tail vein. The temperature and humidity of the breeding room were maintained at 20˜25° C. and 50˜60%, respectively, and the lights were turned on and off at 12-hour intervals. After removing tissues of the femur and L5 lumbar vertebrae, some of them were fixed in 10% formalin for immunostaining and decalcified. Thereafter, after neutralization with 0.5M Phosphate buffer (pH 7.4), washing, and embedding in paraffin. Tissue sections were cut to a thickness of 5 μm, and hematoxylin and eosin staining (H&E staining), trichrome staining, and Safranin O staining were performed. In bone tissue, double immunofluorescence staining method was performed using anti-adiponectin receptor 1/2 antibody, anti-perilipin-1 antibody, anti-RANKL antibody, anti-TNF-α antibody, and ApopTag Fluorescein In Situ Apoptosis Detection Kit (Chemicon International, Temecula, CA) and expression was observed using a confocal microscope.

[4] = system: ovariectomized C57BL/6 mice; test: Serum ACP5/TRAP, osteocalcin and urine deoxypyridinoline by ELISA, ovariectomized mice; conditions: for Increased concentration of deoxypyridinoline in urine: P<0.05
Protocol: 7 weeks after ovariectomization or sham surgery of 7-week-old C57BL/6 mice, normal feed group (adiporon non-administered group; control group) administration group, 2.5 mg/kg day or 25 mg/kg day, respectively Feed comprising adiporon was consumed for 6 weeks from 14 weeks of age. Body weight was measured every week during the experiment period, and the experiment was conducted after 6 weeks of administration. In both experiments, blood collected from each mouse was allowed to stand at room temperature for 30 minutes, and then centrifuged at 3000 rpm for 15 minutes to obtain serum. Blood levels of tartrate-resistant acid phosphatase (TRAP/ACP5) and osterocalcin concentration were measured by ELISA. In addition, 8-hydroxy-deoxyguanosine, a DNA damage marker caused by oxidative stress, and isoprostane, a marker of oxidative stress caused by lipid peroxidation caused by free fatty acids, and deoxypyridinoline (DPP), which indicates the function of osteoclasts, were measured in 24-hour urine concentrations by ELISA method.

[5] = db/db mice (type 2 diabetic), adiporon 30 mg/kg/day in diet for 4 weeks, mean ± SD
[6] = db/db mice, adiporon 30 mg/kg/day, 4 weeks, result in words
[7] = ilium (femur), adiporon 2.5 or 25 mg/kg day, dose not distinguished
[8] = vertebrae (lumbar vertebrae 5), adiporon 2.5 or 25 mg/kg day, dose not distinguished
[9] = adiporon 2.5 or 25 mg/kg day, dose not distinguished, ELISA

Cl.O=C(COc1ccc(C(=O)c2ccccc2)cc1)NC1CCN(Cc2ccccc2)CC1 [adiporon]
Body wt [1, 5]: 53 ± 4.8 g
Urinary 8-OHDG [1, 5]: 74.5 ± 19.6 ng/24 h
Urinary isoprostane [1, 5]: 19.3 ± 9.4 ng/24 h
Changes of body weight, blood glucose, glycated hemoglobin, blood total cholesterol, triglyceride, free fatty acid and blood adiponectin ([1]; db/db mice vs db/m, adiporon 30 mg/kg/day, 4 weeks, result in words): restored
24-hour urine concentration of 8-hydroxy-deoxyguanosine (increase in db/db) [1, 6]: improved the index increase
24-hour urine concentration of isoprostane (increase in db/db) [1, 6]: improved the index increase
Decreased expression of adiponectin-receptor 1/2 (western blot) ([2]; ilium (femur), adiporon 2.5 mg/kg day): restored
Decreased expression of adiponectin-receptor 1/2 (western blot) ([2]; ilium (femur), adiporon 25 mg/kg day): restored
Activation of adiponectin-receptor 1-AMPK [2, 7]: increased
Expression of PGC-1α [2, 7]: increased
Expression of adiponectin-receptor 2-PPARα [2, 7]: increased
Decreased expression of adiponectin-receptor 1/2 (western blot) ([2]; vertebrae (lumbar vertebrae 5), adiporon 2.5 mg/kg day): restored
Decreased expression of adiponectin-receptor 1/2 (western blot) ([2]; vertebrae (lumbar vertebrae 5), adiporon 25 mg/kg day): restored
Activation of adiponectin-receptor 1-AMPK [2, 8]: increased
Expression of PGC1α [2, 8]: increased
Expression of adiponectin-receptor 2-PPARα [2, 8]: increased
Decrease in the ilium growth plate (thickness) ([3]; ilium (femur)): recovered
Increase in adipose tissue in tissue ([3]; ilium (femur)): recovered
Increase in fibrosis in tissue ([3]; ilium (femur)): recovered
Increase in adipose tissue in tissue ([3]; vertebrae (lumbar vertebrae 5)): reversed
Increase in fibrosis in tissue ([3]; vertebrae (lumbar vertebrae 5)): reversed
Increased concentration of deoxypyridinoline in urine ([4]; adiporon 2.5 mg/kg day vs not administered): significantly reduced
Increased concentration of deoxypyridinoline in urine ([4]; adiporon 25 mg/kg day vs not administered): significantly reduced
Decreased serum osteocalcin concentration [4, 9]: reversed
Serum ACP5/TRAP concentrations [4, 9]: no such change
